Assay results as given in BindingDB's records for patent US9161922 (Case Western Reserve University, 2015).
pIC50: −log10 of the molar value.

Biological target: Primary amine oxidase, liver isozyme (Bos taurus, UniProt Q29437)
Experiment: Inhibition Assay
Conditions: pH 7.2; 30 °C
Experimental: In the following Examples, 0.9 mL aliquots of a solution of candidate inhibitor in 100 mM potassium phosphate buffer, pH 7.2 was mixed bovine plasma amine oxidase (0.1 mL, about […]) and incubated at 30° C. aerobically. Aliquots (0.1 mL) were periodically withdrawn using disposable calibrated Drummond micropipettes and diluted with 1.0 mL of benzylamine (5 mM in 50 mM sodium phosphate buffer, pH 7.2) in a 1 cm quartz cuvette (1.5 mL volume). The rate of oxidation of benzylamine to benzaldehyde was measured by recording the increase in absorbance at 250 nm for 1 minute and compared to the rate of benzylamine oxidation in a companion control solution of enzyme without inhibitor. The concentration of active BPAO was estimated from the rate of benzylamine oxidation. Inhibitory potency values (IC50 values) and partition values for inactivation of BPAO were measured at various times as in indicated in the Tables.

Chain of Primary amine oxidase, liver isozyme (Q29437 17-762 limits assumed): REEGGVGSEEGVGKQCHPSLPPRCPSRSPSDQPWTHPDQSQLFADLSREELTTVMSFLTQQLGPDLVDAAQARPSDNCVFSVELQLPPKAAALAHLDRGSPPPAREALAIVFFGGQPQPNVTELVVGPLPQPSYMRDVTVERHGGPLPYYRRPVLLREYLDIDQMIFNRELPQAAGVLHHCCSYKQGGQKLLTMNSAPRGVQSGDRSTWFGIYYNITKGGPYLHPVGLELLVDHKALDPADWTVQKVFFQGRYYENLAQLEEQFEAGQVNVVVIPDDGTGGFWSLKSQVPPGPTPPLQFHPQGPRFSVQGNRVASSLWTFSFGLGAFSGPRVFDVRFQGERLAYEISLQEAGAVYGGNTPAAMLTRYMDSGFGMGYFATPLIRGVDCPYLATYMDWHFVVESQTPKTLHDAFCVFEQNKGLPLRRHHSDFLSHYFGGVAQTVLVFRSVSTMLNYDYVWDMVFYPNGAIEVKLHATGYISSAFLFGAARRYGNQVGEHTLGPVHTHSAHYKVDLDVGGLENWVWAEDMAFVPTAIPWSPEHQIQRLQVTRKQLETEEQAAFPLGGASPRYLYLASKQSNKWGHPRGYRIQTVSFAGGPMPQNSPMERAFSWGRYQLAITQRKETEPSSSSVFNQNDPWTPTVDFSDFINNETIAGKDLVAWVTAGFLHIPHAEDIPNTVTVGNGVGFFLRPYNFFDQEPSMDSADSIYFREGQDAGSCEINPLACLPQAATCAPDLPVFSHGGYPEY

Row | SMILES | pIC50
1 | NCC#CCNCCc1ccccc1 [US9161922, Table 1, Compound 2] | 3.30
2 | NCC#Cc1ccccc1 [US9161922, Table 1, Compound 3] | 3.15
3 | N#CC#CCN [US9161922, Table 1, Compound 5] | 4.89
4 | NCC#CCN [US9161922, Table 1, Compound 6] | 4.70
5 | NCC#CC#CCN [US9161922, Table 1, Compound 7] | 5.05
6 | NC/C=C/CN [US9161922, Table 1, Compound 8] | 2.70
7 | NC/C=C(\Cl)CN [US9161922, Table 1, Compound 9] | 4.62
8 | CC#CCCN [US9161922, Table 2, Compound 2] | 5.00
9 | NCCC#Cc1ccccc1 [US9161922, Table 2, Compound 3] | 4.87
10 | NCCC#Cc1cccnc1 [US9161922, Table 2, Compound 6] | 5.44
11 | NCCC#CCc1ccccc1 [US9161922, Table 2, Compound 7] | 5.34
12 | CC#CC(CN)c1ccccc1 (stereo not drawn) [US9161922, Table 2, Compound 8] | 3.97
13 | CC#CCC(N)c1ccccc1 (stereo not drawn) [US9161922, Table 2, Compound 9] | 2.19
